Experimental data taken from patent US10836726B2, “AZO-quaternary pyridinium salts with acid-enhanced antibacterial efficacy, methods of use, methods of synthesis, and uses thereof” (priority 2016, dated 2020).

Columns and labels:
Assay type in all cases: cell-based
[1] = tested on: Escherichia coli (E. coli, K12); experiment: Bacterial growth curves (OD600) after exposure in pH buffers
Protocol: (§1) Azo-QPS-C16 was effective on both […] bacteria. The ability of bacteria to proliferate after exposure to Azo-QPS-C16 was characterized by adding growth medium and measuring the optical density (OD) at 600 nm every 15 minutes in pH 4.1, 5.8, and 7.9 buffer. […] However, exposure at pH 7.9 required a much higher concentration (40 μg/mL) to inhibit cell growth. […] The pH dependence of bactericidal activity of Azo-QPS-C16 in terms of minimum bactericidal concentration (MBC) was evaluated by inoculating cultures onto a Lysogeny Broth (LB) agar plate after treating the cells with a twofold dilution series of Azo-QPS-C16.
(§2) Bacterial strains and growth conditions. […]
(§3) In a 96-well plate, 2 μL of Azo-QPS-C16 at various concentrations in dimethyl sulfoxide (DMSO) were added to 98 μL of bacteria suspension per well for a final concentration ranging from a 2-fold dilution series between 40 to 1.25 μg/mL of Azo-QPS-C16. […] E. coli were cultured at 37° C., and the OD600 of each well was measured by a Tecan Spark microplate reader (Männedorf, Switzerland) every 15 minutes for up to 19 hours, with 30 seconds shaking before each measurement. S. mutans were grown at 37° C. with 5% CO2, and the OD600 of each well was measured periodically using a Molecular Devices (Sunnyvale, Calif.) SpectraMax M5 microplate reader. […]

[2] = tested on: Escherichia coli (E. coli, K12); experiment: Minimum bactericidal concentration (MBC) determination by agar colony formation; details: MBC increased as pH increased
Protocol: as §1, §2, §3

[3] = tested on: Streptococcus mutans (S. mutans, UA159); experiment: as above; details: more effective in acidic conditions
Description: The inventor observed similar pH-sensitive antibacterial activity of Azo-QPS-C16 towards the Gram-positive, lactic acid producing, cariogenic bacteria S. mutans.
Bacterial strains and growth conditions. Streptococcus mutans (S. mutans, UA159) and Escherichia coli (E. coli, K12) were purchased from ATCC (American Type Culture Collection, Manassas, Va., USA). Todd Hewitt Broth (THB), and Lysogeny Broth (LB) powder and agar were purchased from BD (Becton, Dickinson and Company, Franklin Lakes, N.J., USA). Planktonic cultures were inoculated from 25% (by volume) glycerol frozen stocks stored at −80° C. E. coli cultures were grown in LB at 37° C. in a shaker-incubator. S. mutans cultures were grown in THB at 37° C. with 5% (by volume) CO2 overnight.
as §3

SMILES: C=C(C)C(=O)Oc1ccc(/N=N/c2cc[n+](CCCCCCCCCCCCCCCC)cc2)cc1.[Br-] [Azo-QPS-C16, (E)-1-hexadecyl-4-((4-(methacryloyloxy)phenyl)diazenyl)-pyridinium bromide]
- concentration that fully inhibited E. coli growth up to 19 hours ([1]; exposure at pH 4.1, 45 min treatment, OD 600 nm): 2.5 µg/mL
- concentration required to inhibit cell growth ([1]; exposure at pH 7.9, E. coli): 40 µg/mL
- difference in MBC between pH 4.1 and pH 7.9 [2]: 16 fold
- MBC-based effectiveness in acidic versus mildly basic conditions [3]: 8 fold
